Assay results: patent publication US12497614B2, “Compositions and methods for editing beta-globin for treatment of hemaglobinopathies” (Vertex Pharmaceuticals Incorporated, priority 2020, dated 2025)
Strand notation (5' to 3'): a small letter for the sugar, then the base; units joined by * are phosphorothioate-linked, units joined directly phosphodiester-linked; [ ] holds rarer units or linkages, { } end groups; capitals alone tell only the bases. m = 2'-O-methyl; r = 2'-OH (RNA)

What was measured:
[1] = tested on: HBB gene locus in CD34+ HSPCs; test: HDR efficiency with DNA-PK inhibitors for editing the HBB gene in CD34+ HSPCs; NGS (Example 4); type: cell-based, human; details: for % HDR / % INDELs: 48 hours
Experimental: The cells were transduced with AAV donor template for 1 hour at 37° C. prior to electroporation. AAV-encoded homology donor template referred to as “AAV.310”, which is identified by sequence in Table 8. The AAV.310 donor template encodes a SCD mutation, specifically valine at the 6th codon downstream the HBB start codon (E6V). The cells were treated with AAV at a dose of 10,000 MOI.
Edited cells were evaluated for viability using trypan blue, and for incorporation of gene-edits at 2 days post-electroporation. The efficiency of HDR repair for introducing an E6V mutation in the HBB gene was quantified by NGS assay as described in Example 1, and the frequency of INDELs induced at the T107 cut site was also evaluated by NGS analysis.
The INDELs species identified in edited cells were further evaluated to determine frequency of repair by NHEJ or MMEJ repair pathways. An INDEL of ±1 nt was considered due to NHEJ repair; a deletion of −9 nt was considered due to MMEJ repair based on the microhomology present on either side of the T107 cut site. Based on percentage of total reads corresponding to these INDEL species, the ratio of gene edits due to NHEJ and MMEJ repair was evaluated. […] Thus, reduced frequency of INDELs with treatment of compound 296 or i53 is largely due to suppression of the NHEJ repair pathway.

CD34+ HSPCs [2] = test: Cell growth and viability (trypan blue) of edited CD34+ HSPCs during differentiation (Example 5); details: day 0 to day 18 post-editing; inhibitor 1 or 3 μM, i53 1 μg mRNA; data not shown
Experimental: Briefly, frozen CD34+ HSPCs isolated from Plerixafor mobilized peripheral blood, obtained from healthy human donors were thawed. The cells were seeded in CD34 cell media at a cell density of 2×10^5 cells/mL. Cells were cultured at 37° C. under normoxic conditions (i.e., oxygen 20%). Gene-editing was performed following two days of in vitro culture. For editing, 5×10^5 CD34+ HSPCs were electroporated with RNP containing 200 μg/ml Cas9 and 200 μg/ml T107 sgRNA. […] The cells were transduced with AAV.310, 1 hour prior to electroporation, at a dose of 10,000 MOI. The cells were plated in CD34 cell medium containing Compound 296 or Compound 984 immediately following the electroporation, at a concentration of 1 μM or 3 μM for 48 hours. […] Post electroporation cells were resuspended in CD34 cell medium at a density of 2-5×10^5 cells/ml and incubated at 37° C. for 48 hours.
Following editing, cells were differentiated to erythrocytes. Briefly, cells were plated in fresh CD34 media at a density of 2×10^5 cells/mL, and re-plated at similar density in fresh CD34 media on days 3 and 5 post-editing. On day 7 and 10 post-editing, the cells were incubated in Phase II media at a density of 2.5×10^5 and 1×10^6 cells/mL respectively. On day 12 post-editing, the cells were incubated in Phase III media at a density of 1×10^6 cells/mL. On day 14 cells were plated at a density of 2×10^6 cells/ml in Phase III media and maintained till day 18 at 37° C. Cell growth was measured at various time points between day 0 and day 18 post-editing, and the percentage of viable cells was measured by staining with tryphan blue.

[3] = tested on: HBB gene locus and mRNA transcribed from HBB in CD34+ HSPCs; test: Editing efficiency in genomic DNA and in HBB mRNA (Example 5); type: cell-based, human; details: genomic DNA, 48 hours post electroporation; 1 μM or 3 μM
Experimental: At 48 hours post electroporation genomic DNA was isolated from the edited cells and HDR to introduce the sickle mutation and INDEL frequencies were evaluated using next gene sequencing and computational analysis. On day 10 of differentiation, incorporation of the SCD mutation and frequency of INDELs present in mRNA transcribed from the HBB gene locus of edited cells was determined using RNA amplicon sequencing.

CD34+ HSPCs [4] = test: Globin and hemoglobin analysis by HPLC on day 18 of differentiation (Example 5); type: cell-based, human; details: T107 RNP+AAV.310 alone or combined with the inhibitor
Experimental: (§1) Following editing, cells were differentiated to erythrocytes.
Additionally, on day 18 post-editing, expression of globin monomers was assessed in differentiated cells by HPLC as described in Example 3. […] Accordingly, the editing was sufficient to both introduce the SCD mutation in HBB and result in expression of sickle globin.
Furthermore, production of hemoglobin tetramers was also evaluated by HPLC. The analysis included quantification of HbS tetramer containing sickle-globin (α2β(E6V)2), HbF tetramer (α2γ2), HbA (α2β2), and HbA2 (α2δ2) produced by edited cells. […] Thus, the editing was also sufficient to alter hemoglobin output following in vitro differentiation.

CD34+ HSPCs [5] = test: Erythrocyte functionality: enucleation and cell-surface markers by flow cytometry (Example 5); type: cell-based, human; details: T107 RNP+AAV.310 alone or combined with the inhibitor
Experimental: as §1
The ability of edited cells to differentiate to functional erythrocytes was assessed by determining expression of erythrocyte-associated cell surface markers and enucleation using flow cytometry on day 12 and 18 post editing. Briefly, 4×10^5 cells were obtained, and half were stained for erythrocyte cell-surface markers and half were used for detection of enucleation. For staining cell-surface markers, the cells were incubated in PBS containing 1% human serum albumin (PBS-A) and an antibody cocktail of anti-CD233(BRIC6-Band3)-FITC, anti-CD71-PE, anti-CD235a(GlyA)-PE/Cy7, and anti-CD49d (α4)-VioBlue. For detection of enucleation, 2 drops of NucRed nuclear staining reagent was added to 1 mL PBS-A, and 100 μL was added to plated cells. Following incubation, both cell samples were labeled with Sytox Blue solution (1:1000 dilution in PBS-A) for live/dead analysis. Samples were then assessed by flow cytometry

HBB gene in CD34+ HSPCs = test: Comparison of guides targeting intron 1 of HBB with AAV donor templates (Example 8); type: cell-based, human; details: with each of AAV.309, AAV.310, AAV.311; day 2 post-editing
Experimental: Healthy donor CD34+ HSPCs derived from plerixafor-mobilized peripheral blood were cultured as described in Example 1 for two days prior to editing. Editing was performed using 1×10^6 CD34+ HSPCs per treatment group. The cells were electroporated with RNP containing the following 20 μg SpCas9 and 20 μg T107 sgRNA, 20 μg T223 sgRNA, or 20 μg R02 sgRNA. […] The cells were transduced with AAV6 donor templates encoding a SCD mutation (AAV.309; AAV.310; AAV.311) by incubating the cells with AAV at a dose of 10,000 MOI for one hour prior to electroporation. Control cells were transduced with AAV only and electroporated in the absence of RNP.
On day 2 post-editing, the efficiency of HDR repair for inducing a SCD mutation in the HBB gene was quantified by NGS assay as described in Example 1.

[6] = tested on: genomic sites undergoing off-target cleavage; test: GUIDE-Seq screen of candidate off-target sites; type: cell-based, human
From the text: The second approach was to screen candidate off-target sites using GUIDE-Seq (see, e.g., Tsai et al (2015) NAT. BIOTECHNOL. 33:187). Based on this approach, the following number of genomic sites were identified as undergoing off-target cleavage per each gRNA: • (i) 36 GUIDE-Seq off-target sites for R02 gRNA; • (ii) 12 GUIDE-Seq off-target sites for […]; and • (iii) 43 GUIDE-Seq off-target sites for T223 gRNA.

[7] = T107 RNP + AAV.310 + 0.012 μM compound
[8] = T107 RNP + AAV.310 + 0.037 μM compound
[9] = T107 RNP + AAV.310 + 0.04 μM compound
[10] = T107 RNP + AAV.310 + 3.3 μM compound
[11] = T107 RNP + AAV.310 + 10 μM compound

CNC(=O)c1ccnc2c([C@H](C)CNc3cc(-c4cnc(C)nc4)ncn3)cccc12 [Compound 296]
% HDR [1, 7]: 40% | % INDELs [1, 7]: 45% | % HDR [1, 8]: 39% | % INDELs [1, 8]: 46% | % HDR [1, 9]: 40% | % INDELs [1, 9]: 42% | % HDR [1, 10]: 55% | % INDELs [1, 10]: 27% | % HDR [1, 11]: 57% | % INDELs [1, 11]: 25% | reduction of the frequency of INDELs at the T107 cut site compared to control cells ([1]; T107 RNP+AAV.310 with DNA-PK inhibitor): approximately 1.6 fold | INDEL species due to MMEJ repair (deletion of −9 nt) ([1]; T107 RNP+AAV.310, Compound 296 at 10 μM, i53 at 1 μg mRNA): no substantial reduction | decrease in INDELs due to NHEJ repair (INDEL of ±1 nt) ([1]; T107 RNP+AAV.310, Compound 296 at 10 μM, i53 at 1 μg mRNA, vs DMSO): ≤ 3 fold | cell growth over time or percent viability vs T107 RNP+AAV.310 edited cells (CD34+ HSPCs [2]): No difference | frequency of INDELs at the T107 cut site compared to cells edited with T107 RNP+AAV.310 only [3]: decreased | level of HDR repair compared to cells edited with T107 RNP+AAV.310 only [3]: increased | HbA production compared to control cells (CD34+ HSPCs [4]): decreased | HbS production compared to control cells (CD34+ HSPCs [4]): increased | expression of sickle-globin compared to control cells (CD34+ HSPCs [4]): increased | levels of enucleation vs control cells (CD34+ HSPCs [5]): comparable

B1: T107 gRNA: intron-targeting gRNA, spacer SEQ ID NO: 3, sgRNA SEQ ID NO: 4 (nucleic acid)
guide: mU*mC*mC*rArCrArUrGrCrCrCrArGrUrUrUrCrUrArUrGrUrUrUrUrArGrArGrCrUrArGrArArArUrArGrCrArArGrUrUrArArArArUrArArGrGrCrUrArGrUrCrCrGrUrUrArUrCrArArCrUrUrGrArArArArArGrUrGrGrCrArCrCrGrArGrUrCrGrGrUrGrCmU*mU*mU*rU
levels of HDR for introducing the SCD mutation (HBB gene in CD34+ HSPCs): similar | GUIDE-Seq off-target sites (number) [6]: 12

B2: R02 gRNA: exon-targeting gRNA for exon 1 of HBB, spacer SEQ ID NO: 14, sgRNA SEQ ID NO: 15 (nucleic acid)
guide: mC*mU*mU*rGrCrCrCrCrArCrArGrGrGrCrArGrUrArArGrUrUrUrUrArGrArGrCrUrArGrArArArUrArGrCrArArGrUrUrArArArArUrArArGrGrCrUrArGrUrCrCrGrUrUrArUrCrArArCrUrUrGrArArArArArGrUrGrGrCrArCrCrGrArGrUrCrGrGrUrGrCmU*mU*mU*rU
GUIDE-Seq off-target sites (number) [6]: 36

B3: T223 gRNA: intron-targeting gRNA, spacer SEQ ID NO: 51, sgRNA SEQ ID NO: 52 (nucleic acid)
guide: mU*mA*mA*rGrGrArGrArCrCrArArUrArGrArArArCrUrGrUrUrUrUrArGrArGrCrUrArGrArArArUrArGrCrArArGrUrUrArArArArUrArArGrGrCrUrArGrUrCrCrGrUrUrArUrCrArArCrUrUrGrArArArArArGrUrGrGrCrArCrCrGrArGrUrCrGrGrUrGrCmU*mU*mU*rU
levels of HDR for introducing the SCD mutation (HBB gene in CD34+ HSPCs): similar | GUIDE-Seq off-target sites (number) [6]: 43
